Reference: US10633348B2, “Methods to treat lymphoplasmacytic lymphoma” (Dana-Farber Cancer Institute, Inc., priority 2013, dated 2020)

Legend:
Format in all cases: cell-based
ARAF = system: ARAF
MAP3K6 = system: MAP3K6
NDR1 = system: NDR1
CHK2 = system: CHK2
PKCa, PKCb = assay: KiNativ kinase profiling in A375 cells; details: Lys2, SEQ ID NO 153, 1.0 μM
PKD2 = system: PKD2
TAO2 = system: TAO2
GSK3B = system: GSK3B
NEK9 = system: NEK9
MAP3K2 = system: MAP3K2
MELK = system: MELK
TEC = system: TEC
RSK1 domain1 = system: RSK1 domain1
SMG1 = system: SMG1
LOK = system: LOK
MAP3K1 = system: MAP3K1
MST4 = system: MST4
MAP2K7 = system: MAP2K7
AurA = system: AurA
MAP3K3 = system: MAP3K3
MLK4 = system: MLK4
PI4KA, PI4KAP2 = assay: KiNativ kinase profiling in A375 cells; details: ATP, SEQ ID NO 141, 1.0 μM
RSK4 domain1 = system: RSK4 domain1
DGKA = system: DGKA
NDR2 = system: NDR2
RSK2 domain2 = system: RSK2 domain2
BTK = system: BTK
BRAF = system: BRAF
MST1 = system: MST1
CK2a2 = system: CK2a2
PIK3C2B = system: PIK3C2B
EPHB2 = system: EPHB2
LRRK2 = system: LRRK2
LKB1 = system: LKB1
ZAP70 = system: ZAP70
RAF1 = system: RAF1
TLK2 = system: TLK2
ERK5 = system: ERK5
[1] = system: ZC1/HGK, ZC2/TNIK, ZC3/MINK; assay: KiNativ kinase profiling in A375 cells; details: Lys2, SEQ ID NO 198, 1.0 μM
RSK1 domain2 = system: RSK1 domain2
ACK = system: ACK
SGK3 = system: SGK3
MPSK1 = system: MPSK1
SYK = system: SYK
CDK7 = system: CDK7
MARK3, MARK4 = assay: KiNativ kinase profiling in A375 cells; details: Lys1, SEQ ID NO 94, 1.0 μM
KSR1 = system: KSR1
AMPKa1, AMPKa2 = assay: KiNativ kinase profiling in A375 cells; details: Lys2, SEQ ID NO 4, 1.0 μM
MSK1 domain1 = system: MSK1 domain1
SNRK = system: SNRK
Hck-pY410 = assay: PhosFlow; details: BCWM.1, Hck-wt and Hck-mu BCWM.1 cells; 0.5 μM and 0.1 μM

What does the source list for `CCN1CCN(Cc2ccc(NC(=O)c3ccc(C)c(Oc4cc(N)ncn4)c3)cc2C(F)(F)F)CC1` [(A-4), 3-((6-aminopyrimidin-4-yl)oxy)-N-(4-((4-ethylpiperazin-1-yl)methyl)-3-(trifluoromethyl)phenyl)-4-methylbenzamide]?
inhibition of kinase labeling (ARAF): 12.2%; inhibition of kinase labeling (MAP3K6): −25.0%; inhibition of kinase labeling (NDR1): 9.3%; inhibition of kinase labeling (CHK2): −7.8%; inhibition of kinase labeling (PKCa, PKCb): 2.3%; inhibition of kinase labeling (PKD2): −6.9%; inhibition of kinase labeling (TAO2): 86.0%; inhibition of kinase labeling (GSK3B): 0.5%; inhibition of kinase labeling (NEK9): −1.2%; inhibition of kinase labeling (MAP3K2): 4.2%; inhibition of kinase labeling (MELK): −19.6%; inhibition of kinase labeling (TEC): −12.8%; inhibition of kinase labeling (RSK1 domain1): −20.9%; inhibition of kinase labeling (SMG1): −4.0%; inhibition of kinase labeling (LOK): 19.9%; inhibition of kinase labeling (MAP3K1): 26.9%; inhibition of kinase labeling (MST4): 6.2%; inhibition of kinase labeling (MAP2K7): −38.2%; inhibition of kinase labeling (AurA): −16.0%; inhibition of kinase labeling (MAP3K3): 3.7%; inhibition of kinase labeling (MLK4): −1.7%; inhibition of kinase labeling (PI4KA, PI4KAP2): 19.3%; inhibition of kinase labeling (RSK4 domain1): 27.6%; inhibition of kinase labeling (DGKA): −4.8%; inhibition of kinase labeling (NDR2): −10.9%; inhibition of kinase labeling (RSK2 domain2): −24.1%; inhibition of kinase labeling (BTK): −18.8%; inhibition of kinase labeling (BRAF): 18.9%; inhibition of kinase labeling (MST1): −4.7%; inhibition of kinase labeling (CK2a2): −18.2%; inhibition of kinase labeling (PIK3C2B): 24.0%; inhibition of kinase labeling (EPHB2): −12.8%; inhibition of kinase labeling (LRRK2): −15.9%; inhibition of kinase labeling (LKB1): −6.0%; inhibition of kinase labeling (ZAP70): 49.2%; inhibition of kinase labeling (RAF1): 36.6%; inhibition of kinase labeling (TLK2): 7.1%; inhibition of kinase labeling (ERK5): 25.9%; inhibition of kinase labeling [1]: 19.2%; inhibition of kinase labeling (RSK1 domain2): −16.3%; inhibition of kinase labeling (ACK): 4.9%; inhibition of kinase labeling (SGK3): −10.2%; inhibition of kinase labeling (MPSK1): 16.1%; inhibition of kinase labeling (SYK): 17.4%; inhibition of kinase labeling (CDK7): 3.9%; inhibition of kinase labeling (MARK3, MARK4): −16.2%; inhibition of kinase labeling (KSR1): −22.0%; inhibition of kinase labeling (AMPKa1, AMPKa2): 16.3%; inhibition of kinase labeling (MSK1 domain1): 5.7%; inhibition of kinase labeling (SNRK): 18.0%

For `CCN1CCN(Cc2ccc(NC(=O)c3ccc(C)c(Oc4ccnc(Nc5cnn(C)c5)n4)c3)cc2C(F)(F)F)CC1` [(A-14), N-(4-((4-ethylpiperazin-1-yl)methyl)-3-(trifluoromethyl)phenyl)-4-methyl-3-((2-((1-methyl-1H-pyrazol-4-yl)amino)pyrimidin-4-yl)oxy)benzamide], which “Hck phosphorylation” value (Hck-pY410) is on record?
Its value is “inhibit”.
